Results taken from the NIST ThermoML archive (doi:10.1016/j.fluid.2018.04.021).
± gives the expanded uncertainty stated by the source.

Conditions: Liquid; flow method with low residence time

| Critical pressure [kPa] | Critical temperature [K] | Compound |
| --- | --- | --- |
| 4074 ± 36 | 553.6 ± 0.4 | C1CCCCC1 [cyclohexane] |
| 3346 ± 30 | 578.1 ± 0.4 | CCOC(=O)OCC [diethyl carbonate] |
| 6141 ± 51 | 514 ± 0.4 | CCO [ethanol] |
| 2736 ± 25 | 540.1 ± 0.4 | CCCCCCC [heptane] |
| 3033 ± 27 | 507.8 ± 0.4 | CCCCCC [hexane] |
| 2496 ± 24 | 568.9 ± 0.4 | CCCCCCCC [octane] |
